The values below come from patent publication US11591341B2 (ALIGOS THERAPEUTICS, INC., priority 2019, dated 2023).

pEC50: −log10 of the molar value.

This test has as its system HBV. In words: HBV-DNA Antiviral Assay Using HepG2.117 Cells (intracellular HBV DNA by qPCR). It counts as cell-based, hepatitis B virus (genotype D). Conditions: Hepatitis B virus, HepG2.117. The method in brief:
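HepG2.117 cells (genotype D HBV, Tet-off) were induced by doxycycline withdrawal and treated for 3 days with 9 concentrations in 4-fold dilution, 2% DMSO final. Intracellular HBV DNA was measured by qPCR against a standard curve, with ATPlite viability read in parallel. EC50, EC90 and CC50 came from fits against the DMSO control.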
As to `O=C(c1ccc(Br)c(Cl)c1)N1CCn2c(c3n(c2=O)C[C@@H](O)CN(Cc2ccccc2)C3=O)C1` (stereo in doubt) [Example 175, rac-(11S)-13-benzyl-4-(4-bromo-3-chloro-benzoyl)-11-hydroxy-4,7,9,13-tetrazatricyclo[7.5.0.0^2,7]tetradec-1-ene-8.14-dione], the pEC50 is 5.30 to 6.30.
The value for `COc1ccc(-n2c(C(=O)NCc3ccccc3)c3n(c2=O)CCN(C(=O)c2ccc(Cl)c(Cl)c2)C3)cc1` [Example 54, N-benzyl-7-(3,4-dichlorobenzoyl)-2-(4-methoxyphenyl)-3-oxo-6,8-dihydro-5H-imidazo[1,5-a]pyrazine-1-carboxamide] was 5.30 to 6.30.
The value for `COc1ccc(CNC(=O)c2c3n(c(=O)n2-c2ccccc2)CCN(C(=O)c2ccc(Br)c(Cl)c2)C3)cc1OC` [Example 32, 7-(4-bromo-3-chloro-benzoyl)-N-[(3,4-dimethoxyphenyl)methyl]-3-oxo-2-phenyl-6,8-dihydro-5H-imidazo[1,5-a]pyrazine-1-carboxamide] was 6.30 to 7.00.
`C[C@H](NC(=O)c1c2n(c(=O)n1C)CCN(C(=O)c1ccc(Br)c(Cl)c1)C2)c1ccccc1` (stereo in doubt) [Example 112, 7-(4-bromo-3-chloro-benzoyl)-2-methyl-3-oxo-N-[rac-(1S)-1-phenylethyl]-6,8-dihydro-5H-imidazo[1,5-a]pyrazine-1-carboxamide]: the pEC50 was below 5.30.
The value for `COc1ccc(-n2c(C(=O)NCc3ccc4oc(C)nc4c3)c3n(c2=O)CCN(C(=O)c2ccc(Cl)c(Cl)c2)C3)cc1` [Example 67, 7-(3,4-dichlorobenozyl)-2-(4-methoxyphenyl)-N-[(2-methyl-1,3-benzoxazol-5-yl)methyl]-3-oxo-6,8-dihydro-5H-imidazo[1,5-a]pyrazine-1-carboxamide] was 5.30 to 6.30.
The value for `COc1ccc(CNC(=O)c2c3n(c(=O)n2-c2cccc(OC)c2)CCN(C(=O)c2ccc(Br)c(Cl)c2)C3)cc1` [Example 21, 7-(4-bromo-3-chloro-benzoyl)-2-(3-methoxyphenyl)-N-[(4-methoxyphenyl)methyl]-3-oxo-6,8-dihydro-5H-imidazo[1,5-a]pyrazine-1-carboxamide] was 5.30 to 6.30.
The value for `COc1ccc(CN2C/C=C\Cn3c(c4n(c3=O)CCN(C(=O)c3ccc(Br)c(Cl)c3)C4)C2=O)cc1` [Example 132, (11Z)-4-(4-bromo-3-chloro-benzoyl)-14-[(4-methoxyphenyl)methyl]-4,7,9,14-tetrazatricyclo[7.6.0.0^2,7]pentadeca-1,11-diene-8.15-dione] was 6.30 to 7.00; that for `CC1Cn2c(c(C(=O)NCc3ccccc3-n3cc(F)cn3)n(-c3ccc(OC4CC4)cc3)c2=O)CN1C(=O)c1ccc(Br)c(Cl)c1` (racemic) [Example 440, rac-(6S)-7-(4-bromo-3-chloro-benzoyl)-2-[4-(cyclopropoxy)phenyl]-N-[[2-(4-fluoropyrazol-1-yl)phenyl]methyl]-6-methyl-3-oxo-6,8-dihydro-5H-imidazo[1,5-a]pyrazine-1-carboxamide] was above 7.00.
Compound `CC(C)Oc1ccc(-n2c(C(=O)NCc3ccccc3)c3n(c2=O)CCN(C(=O)c2ccc(Cl)c(Cl)c2)C3)cc1` [Example 52] had a pEC50 of 5.30 to 6.30.
In turn, `CC(C)Oc1ccc(-n2c(C(=O)NCc3ccc(C#N)cc3F)c3n(c2=O)CCN(C(=O)c2ccc(Br)c(Cl)c2)C3)cc1` [Example 212, 7-(4-bromo-3-chloro-benzoyl)-N-[(4-cyano-2-fluoro-phenyl)methyl]-2-(4-isopropoxyphenyl)-3-oxo-6,8-dihydro-5H-imidazo[1,5-a]pyrazine-1-carboxamide] gave a pEC50 of 6.30 to 7.00.
On to `COc1ccc(-n2c(C(=O)NCc3cc(OC)cc(OC)c3)c3n(c2=O)CCN(C(=O)c2ccc(Br)c(Cl)c2)C3)cc1` [Example 153, 7-(4-bromo-3-chloro-benzoyl)-N-[(3,5-dimethoxyphenyl)methyl]-2-(4-methoxyphenyl)-3-oxo-6,8-dihydro-5H-imidazo[1,5-a]pyrazine-1-carboxamide], for which the pEC50 was 6.30 to 7.00.
The value for `C[C@H]1Cn2c(c3n(c2=O)C[C@@H](F)CN(Cc2ccccc2)C3=O)CN1C(=O)c1ccc(Br)c(Cl)c1` (stereo in doubt) [Example 371, 13-benzyl-4-(4-bromo-3-chlorobenzoyl)-11-fluoro-4,7,9,13-tetraazatricyclo[7.5.0.0^[2,7]]tetradec-1-ene-8,14-dione] was above 7.00; that for `COc1ccc(-n2c(C(=O)N[C@H](C(N)=O)c3ccccc3)c3n(c2=O)CCN(C(=O)c2ccc(Br)c(Cl)c2)C3)cc1` (racemic) [Example 207, 7-(4-bromo-3-chloro-benzoyl)-2-(4-methoxyphenyl)-3-oxo-N-[rac-(1S)-2-amino-2-oxo-1-phenyl-ethyl]-6,8-dihydro-5H-imidazo[1,5-a]pyrazine-1-carboxamide] was below 5.30; that for `CNc1ccc(-n2c(C(=O)NCc3ccccc3)c3n(c2=O)CCN(C(=O)c2ccc(Br)c(Cl)c2)C3)cc1` [Example 311, N-benzyl-7-(4-bromo-3-chloro-benzoyl)-2-[4-(methylamino)phenyl]-3-oxo-6,8-dihydro-5H-imidazo[1,5-a]pyrazine-1-carboxamide] was 6.30 to 7.00.
As for `NC(=O)c1cccc(-n2c(C(=O)NCc3ccccc3)c3n(c2=O)CCN(C(=O)c2ccc(Br)c(Cl)c2)C3)c1` [Example 35, N-benzyl-7-(4-bromo-3-chloro-benzoyl)-2-(3-carbamoylphenyl)-3-oxo-6,8-dihydro-5H-imidazo[1,5-a]pyrazine-1-carboxamide], the pEC50 is below 5.30.
The value for `COc1ccc(-n2c(C(=O)NCc3ccc(OC)cc3Cl)c3n(c2=O)CCN(C(=O)c2ccc(Cl)c(Cl)c2)C3)cc1` [Example 85, N-[(2-chloro-4-methoxy-phenyl)methyl]-7-(3,4-dichlorobenzoyl)-2-(4-methoxyphenyl)-3-oxo-6,8-dihydro-5H-imidazo[1,5-a]pyrazine-1-carboxamide] was 5.30 to 6.30; that for `CC(C)Oc1ccc(-n2c(C(=O)NCc3ccc(C(F)F)cc3)c3n(c2=O)CCN(C(=O)c2ccc(Br)c(Cl)c2)C3)cc1` [Example 243, 7-(4-bromo-3-chloro-benzoyl)-N-[[4-(difluoromethyl)phenyl]methyl]-2-(4-isopropoxyphenyl)-3-oxo-6,8-dihydro-5H-imidazo[1,5-a]pyrazine-1-carboxamide] was 6.30 to 7.00.
The value for `N#Cc1ccc(CNC(=O)c2c3n(c(=O)n2-c2ccc(OCC(F)(F)F)cc2)CCN(C(=O)c2ccc(Br)c(Cl)c2)C3)c(F)c1` [Example 287, 7-(4-bromo-3-chloro-benzoyl)-N-[(4-cyano-2-fluoro-phenyl)methyl]-3-oxo-2-[4-(2,2,2-trifluoroethoxy)phenyl]-6,8-dihydro-5H-imidazo[1,5-a]pyrazine-1-carboxamide] was 5.30 to 6.30; that for `C[C@@H](NC(=O)c1c2n(c(=O)n1-c1ccc(OCC(F)(F)F)cc1)CCN(C(=O)c1ccc(Br)c(Cl)c1)C2)c1ccc(OCC(N)=O)cc1F` (stereo in doubt) [Example 319, 7-(4-bromo-3-chloro-benzoyl)-3-oxo-N-[rac-(1R)-1-[4-(2-amino-2-oxo-ethoxy)-2-fluoro-phenyl]ethyl]-2-[4-(2,2,2-trifluoroethoxy)phenyl]-6,8-dihydro-5H-imidazo[1,5-a]pyrazine-1-carboxamide] was 5.30 to 6.30.
The value for `COc1ccc(-n2c(C(=O)NCc3ccc(F)cc3)c3n(c2=O)CCN(C(=O)c2ccc(Br)c(Cl)c2)C3)cc1` [Example 60, 7-(4-bromo-3-chloro-benzoyl)-N-[(4-fluorophenyl)methyl]-2-(4-methoxyphenyl)-3-oxo-6,8-dihydro-5H-imidazo[1,5-a]pyrazine-1-carboxamide] was 6.30 to 7.00; that for `C[C@@H](NC(=O)c1c2n(c(=O)n1-c1ccc(OCC(F)(F)F)cc1)CCN(C(=O)c1ccc(Br)c(Cl)c1)C2)c1ccccc1F` (stereo in doubt) [Example 262, 7-(4-bromo-3-chloro-benzoyl)-3-oxo-N-[rac-(1R)-1-(2-fluorophenyl)ethyl]-2-[4-(2,2,2-trifluoroethoxy)phenyl]-6,8-dihydro-5H-imidazo[1,5-a]pyrazine-1-carboxamide] was 6.30 to 7.00.
Consider `CC(NC(=O)c1c2n(c(=O)n1-c1ccc(OCC(F)(F)F)cc1)CCN(C(=O)c1ccc(Br)c(Cl)c1)C2)c1ccc(OC2COC2)cc1F` (racemic) [Example 348, 7-(4-bromo-3-chloro-benzoyl)-3-oxo-N-[rac-(1R)-1-[2-fluoro-4-(oxetan-3-yloxy)phenyl]ethyl]-2-[4-(2,2,2-trifluoroethoxy)phenyl]-6,8-dihydro-5H-imidazo[1,5-a]pyrazine-1-carboxamide], for which the pEC50 is 5.30 to 6.30.
Take `CC(C)Oc1ccc(-n2c(C(=O)NCc3ccc4occc4c3)c3n(c2=O)CCN(C(=O)c2ccc(Br)c(Cl)c2)C3)cc1` [Example 220, N-(benzofuran-5-ylmethyl)-7-(4-bromo-3-chloro-benzoyl)-2-(4-isopropoxyphenyl)-3-oxo-6,8-dihydro-5H-imidazo[1,5-a]pyrazine-1-carboxamide]: the pEC50 was below 5.30.
Regarding `C[C@@H]1Cn2c(c(C(=O)NCc3ccccc3-n3cc(F)cn3)n(-c3ccc(OC4CC4)cc3)c2=O)CN1C(=O)c1ccc(Br)c(Cl)c1` (racemic) [Example 441, rac-(6R)-7-(4-bromo-3-chloro-benzoyl)-2-[4-(cyclopropxy)phenyl]-N-[[2-(4-fluoropyrazol-1-yl)phenyl]methyl]-6-methyl-3-oxo-6,8-dihydro-5H-imidazo[1,5-a]pyrazine-1-carboxamide], the pEC50 is 6.30 to 7.00.
The value for `COc1ccc(-n2c(C(=O)N[C@H](C)c3ccc(Br)cc3)c3n(c2=O)CCN(C(=O)c2ccc(Br)c(Cl)c2)C3)cc1` (racemic) [Example 145, 7-(4-bromo-3-chloro-benzoyl)-2-(4-methoxyphenyl)-3-oxo-N-[rac-(1R)-1-(4-bromophenyl)ethyl]-6,8-dihydro-5H-imidazo[1,5-a]pyrazine-1-carboxamide] was 6.30 to 7.00.
